US20230212146A1, “TRIARYLPYRIDINE COMPOUNDS AND USE THEREOF FOR TREATING CANCER” (INSTITUT NATIONAL DE LA SANTEET DE LA RECHERCHE …, priority 2020, published 2023)

Experiments:
[1] = test system: F21T oligonucleotide (human telomeric intramolecular quadruplex); assay: FRET melting analysis, G-quadruplex stabilization; format: binding; conditions: compounds at 1-10 μM, 0.2 μM F21T, 10 mM KCl, 90 mM LiCl, pH 7.2
Protocol: Ordinate: melting temperature (Tm) in Celsius scale (° C.). Abscissa (from left to right): (i) Compounds 1a at 10 μM, 5 μM, 2.5 μM, 1 μM; (ii) Compounds 1b at 10 μM, 5 μM, 2.5 μM, 1 μM; (iii) Compounds 1c at 10 μM, 5 μM, 2.5 μM, 1 μM.
FRET melting experiments were conducted using the F21T oligonucleotide.

HeLa cells = assay: MTT cell viability assay; format: cell-based, human; conditions: 24 h treatment, mean of 4 independent experiments in quadruplicate
Protocol: HeLa cells were treated with 1 μM to 10 μM concentrations of compounds 20A (▾), 1a (grey ▴), 1b (●) and 1c (▪) for 24h. Cell viability was assessed by the MMT assay. Plotted are mean±SD of one representative experiment each performed in quadruplicate. IC50 is scored for each compound from 4 independent experiments performed in quadruplicate. Ordinate: Percentage of HeLa cell viability. Abscissa: Concentrations of compounds 20A, 1a, 1b and 1c.
MTT assay was used to monitor cell viability in HeLa cells subjected to different treatments. Briefly, cells were seeded in a 96-well plate (4×10^3 cells/well). After 24 h of treatment of cells with drug, MTT was added to each well to a final concentration of 0.5 mg/ml during 3 h at 37° C. The supernatant of cells was then removed, and 100 μl of DMSO was added per well. The absorbance in each well was measured at 570 nm and 630 nm using a Flexstation 3 microplate reader (Molecular Devices). 4 independent experiences were conducered, each performed in quadruplicate. To determine the IC50 of compounds 20A, 1a, 1b and 1c, a non-linear regression curve was fit using GraphPad Prism software.

[2] = test system: U2OS expressing Galectin3-mCherry cells; assay: Lysosomal membrane permeabilization (LMP), quantification of Galectin 3 puncta; format: cell-based, human; conditions: 24 h, 2 μM of 1a, 1 μM of 1b, 1 μM of 1c; for percentage of cells with Gal3 puncta: compound alone, without chloroquine; for percentage of Gal3 puncta positive cells: with 25 μM chloroquine
Protocol: The data are presented as the mean percentage of 15 values from 5 randomly chosen area in each of the three independent experiments. Ordinate: Percentage of cells with Galectin3 puncta.
Lysosomal membrane damage was assessed thanks to U2OS expressing Galectin3-mCherry cells. […] Cells were then washed with PBS, fixed with 4% (v/v) paraformaldehyde for 10 min at room temperature and then nucleic were counterstained for 15 min with Hoechst 33258. Image acquisition was made with a Leica DMI8 epifluorescence microscope, with a ×20 objective (NA 0.40) equipped with a digital CMOS camera (Hamamatsu photonics) and filter bloc for detection of phase contrast and blue (exc: 325-375 nm/em: 435-485 nm) and red (exc: 541-551 nm/em: 565-605 nm) fluorescence. Each image was collected with identical exposure times and scaled equally. Five images were acquired for each condition and then analyzed thanks to ImageJ software (Schneider et al., 2012, 9(7): 671-675) in order to count manually the number of cells, and automatically the number of Galectin3 punctae within each cell by using the “Find Maxima” tool.

CSc1ccc(-c2cc(-c3ccc(-n4cc(CCCN5CCCC5)nn4)cc3)nc(-c3ccc(-n4cc(CCCN5CCCC5)nn4)cc3)c2)cc1 [Compound 1a]
stabilization of the F21T quadruplex (melting temperature Tm) [1]: stabilize an intramolecular quadruplex | IC50 (HeLa cells): 4.34 µM | percentage of cells with Gal3 puncta [2]: 26% | percentage of Gal3 puncta positive cells [2]: 57%

CSc1ccc(-c2cc(-c3ccc(-n4cc(CCCN5CCN(C)CC5)nn4)cc3)nc(-c3ccc(-n4cc(CCCN5CCN(C)CC5)nn4)cc3)c2)cc1 [Compound 1b]
stabilization of the F21T quadruplex (melting temperature Tm) [1]: stabilize an intramolecular quadruplex | IC50 (HeLa cells): 3.15 µM | percentage of cells with Gal3 puncta [2]: 31% | percentage of Gal3 puncta positive cells [2]: 56%

CSc1ccc(-c2cc(-c3ccc(-n4cc(CCN5CCN(C)CC5)nn4)cc3)nc(-c3ccc(-n4cc(CCN5CCN(C)CC5)nn4)cc3)c2)cc1 [Compound 1c]
stabilization of the F21T quadruplex (melting temperature Tm) [1]: stabilize an intramolecular quadruplex | IC50 (HeLa cells): 3.62 µM | percentage of cells with Gal3 puncta [2]: 25% | percentage of Gal3 puncta positive cells [2]: 45%
